# Experiments:
# MDA-MB-436 [1] = assay: Cytotoxicity against human MDA-MB-436 cells assessed as inhibition of cell viability incubated for 4 days by CellTiterGlo luminescence assay; settings: MDA-MB-436, 96 h
# [2] = molecular target: T1, Poly [ADP-ribose] polymerase 1 (Homo sapiens, UniProt P09874); assay: Inhibition of N-terminal GST-tagged human full length PARP1 (2 to 1041 residues) expressed in baculovirus infected Sf9 cells using histone mixture (H2A and H2B) and biotinylated NAD+ as substrate in presence of activated DNA incubated for 60 mins by chemiluminescence assay
# MDA-MB-436 [3] = assay: Cytotoxicity against human MDA-MB-436 cells assessed as inhibition of cell viability incubated for 14 days with three intermittent intervals by CellTiterGlo luminescence assay; settings: MDA-MB-436, 336 h
# [4] = molecular target: Poly [ADP-ribose] polymerase 2 (Homo sapiens, UniProt Q9UGN5); assay: Inhibition of N-terminal GST-tagged human PARP2 (2 to 583 residues) expressed in baculovirus infected Sf9 cells using histone mixture (H2A and H2B) and biotinylated NAD+ as substrate in presence of activated DNA incubated for 60 mins by chemiluminescence assay
# [5] = molecular target: T1, Poly [ADP-ribose] polymerase 1; assay: Inhibition of PARP1 in human MDA-MB-436 cells assessed as inhibition of PARylation at 10 nM incubated for 1 hr by chemiluminescence assay; format: cell-based
# [6] = Toxicity in SCID/nude mouse xenografted with human MDA-MB-436 cells harboring BRCA mutant assessed as body weight loss at 50 mg/kg, po bid; format: organism-based; settings: in vivo
# MDA-MB-436 [7] = assay: Potentiation of anticancer activity against human MDA-MB-436 cells harboring BRCA mutant xenografted in SCID/nude mouse assessed as tumor growth inhibition at 3 mg/kg, po bid for 12 days co-administered with TMZ measured up to 9 weeks post-drug administration; format: functional; settings: MDA-MB-436, po, 288 h, time 12 day
# MDA-MB-436 [8] = assay: Anticancer activity against human MDA-MB-436 cells harboring BRCA mutant xenografted in SCID/nude mouse assessed as tumor growth regression at 50 mg/kg, po bid and measured up to 5 weeks post-drug administration; format: functional; settings: MDA-MB-436, po, 840 h, time weeks <=5
# CAPAN-1 = assay: Potentiation of anticancer activity against human CAPAN-1 cells harboring BRCA mutant xenografted in SCID/nude mouse assessed as tumor growth inhibition at 3 mg/kg, po bid for 12 days co-administered with TMZ measured up to 9 weeks post-drug administration; format: functional; settings: CAPAN-1, po, 288 h, time 12 day
# SK-ES1 = assay: Potentiation of anticancer activity against human SK-ES-1 cells harboring EWSF1 translocation xenografted in SCID/nude mouse assessed as tumor growth inhibition at 3 mg/kg, po bid for 12 days co-administered with TMZ measured up to 9 weeks post drug administration; format: functional; settings: 288 h, time 12 day
# [9] = Toxicity against SCID/nude mouse xenografted with human MDA-MB-436 cells harboring BRCA mutant assessed as body weight loss at 0.15 mg/kg, po bid for 12 days co-administered with 35 mg/kg, po TMZ; format: organism-based; settings: in vivo, 288 h, time 12 day
# [10] = Toxicity against SCID/nude mouse xenografted with human MDA-MB-436 cells harboring BRCA mutant assessed as hypothermia at 0.15 mg/kg, po bid for 12 days co-administered with 35 mg/kg, po TMZ; format: organism-based; settings: in vivo, 288 h, time 12 day
# [11] = Toxicity against SCID/nude mouse xenografted with human SK-ES-1 cells harboring EWSF1 translocation assessed as body weight loss at 0.15 mg/kg, po bid for 12 days co-administered with lower dose of TMZ; format: organism-based; settings: in vivo, 288 h, time 12 day
# [12] = Toxicity against SCID/nude mouse xenografted with human CAPAN-1 cells harboring BRCA mutant assessed as body weight loss at 0.15 mg/kg, po bid for 12 days co-administered with 35 mg/kg, po TMZ; format: organism-based; settings: in vivo, 288 h, time 12 day
# [13] = Toxicity in SCID/nude mouse xenografted with human MDA-MB-436 cells harboring BRCA mutant assessed as body weight loss at 0.15 mg/kg, po bid; format: organism-based; settings: in vivo
# [14] = Toxicity against SCID/nude mouse xenografted with human MDA-MB-436 cells harboring BRCA mutant assessed as body weight loss at 0.15 mg/kg, po bid for 12 days co-administered with lower dose of TMZ; format: organism-based; settings: in vivo, 288 h, time 12 day
# MCF7 = assay: Cytotoxicity against human MCF7 cells harboring wild type BRCA at 1000 nM relative to control; format: cell-based; settings: mcf7, 1 µM
# [15] = Toxicity against SCID/nude mouse xenografted with human CAPAN-1 cells harboring BRCA mutant assessed as body weight loss at 0.15 mg/kg, po bid for 12 days co-administered with lower dose of TMZ; format: organism-based; settings: in vivo, 288 h, time 12 day
# [16] = Toxicity against SCID/nude mouse xenografted with human SK-ES-1 cells harboring EWSF1 translocation assessed as body weight loss at 0.15 mg/kg, po bid for 12 days co-administered with 35 mg/kg, po TMZ; format: organism-based; settings: in vivo, 288 h, time 12 day
# MDA-MB-436 [17] = assay: Anticancer activity against human MDA-MB-436 cells harboring BRCA mutant xenografted in SCID/nude mouse assessed as tumor growth regression at 0.15 mg/kg, po bid and measured up to 5 weeks post-drug administration; format: functional; settings: MDA-MB-436, po, 840 h, time weeks <=5
# [18] = Toxicity against SCID/nude mouse xenografted with human SK-ES-1 cells harboring EWSF1 translocation assessed as hypothermia at 0.15 mg/kg, po bid for 12 days co-administered with 35 mg/kg, po TMZ; format: organism-based; settings: in vivo, 288 h, time 12 day
# [19] = Toxicity against SCID/nude mouse xenografted with human CAPAN-1 cells harboring BRCA mutant assessed as hypothermia at 0.15 mg/kg, po bid for 12 days co-administered with 35 mg/kg, po TMZ; format: organism-based; settings: in vivo, 288 h, time 12 day
# HEK293 [20] = assay: Cytotoxicity against HEK293 cells at 1000 nM relative to control; format: cell-based; settings: human, hek293, 1 µM
# [21] = Tmax in BALB/c mouse at 1 mg/kg, iv measured up to 24 hrs by LC-MS/MS analysis; format: ADME, organism-based; settings: in vivo
# [22] = Oral bioavailability in BALB/c mouse at 10 mg/kg measured up to 24 hrs by LC-MS/MS analysis; format: ADME, organism-based; settings: in vivo
# [23] = Half life in BALB/c mouse at 1 mg/kg, iv measured up to 24 hrs by LC-MS/MS analysis; format: ADME, organism-based; settings: in vivo
# [24] = Volume of distribution at steady state in BALB/c mouse at 1 mg/kg, iv measured up to 24 hrs by LC-MS/MS analysis; format: ADME, organism-based; settings: in vivo, read-out: Vdss
# [25] = AUClast in BALB/c mouse at 1 mg/kg, iv measured up to 24 hrs by LC-MS/MS analysis; format: ADME, organism-based; parameters: route intravenous, dose 1 mg/kg, time <=24; settings: in vivo
# [26] = Tmax in BALB/c mouse at 10 mg/kg, po measured up to 24 hrs by LC-MS/MS analysis; format: ADME, organism-based; settings: in vivo
# [27] = Cmax in BALB/c mouse at 10 mg/kg, po measured up to 24 hrs by LC-MS/MS analysis; format: ADME, organism-based; parameters: route oral, dose 10 mg/kg, time <=24; settings: in vivo
# MDA-MB-436 [28] = assay: Anticancer activity against human MDA-MB-436 cells harboring BRCA mutant xenografted in SCID/nude mouse assessed as tumor growth regression at 1.5 mg/kg, po bid and measured up to 5 weeks post-drug administration; format: functional; settings: MDA-MB-436, po, 840 h, time weeks <=5
# [29] = Clearance in BALB/c mouse at 1 mg/kg, iv measured up to 24 hrs by LC-MS/MS analysis; format: ADME, organism-based; settings: in vivo
# [30] = Cmax in BALB/c mouse at 1 mg/kg, iv measured up to 24 hrs by LC-MS/MS analysis; format: ADME, organism-based; parameters: route intravenous, dose 1 mg/kg, time <=24; settings: in vivo
# [31] = AUClast in BALB/c mouse at 10 mg/kg, po measured up to 24 hrs by LC-MS/MS analysis; format: ADME, organism-based; parameters: route oral, dose 10 mg/kg, time <=24; settings: in vivo
# HEK293 [32] = assay: Cytotoxicity against HEK293 cells assessed as inhibition of cell viability; format: cell-based; settings: human
# T1 sequence (P09874 whole entry, the tested form may be a part): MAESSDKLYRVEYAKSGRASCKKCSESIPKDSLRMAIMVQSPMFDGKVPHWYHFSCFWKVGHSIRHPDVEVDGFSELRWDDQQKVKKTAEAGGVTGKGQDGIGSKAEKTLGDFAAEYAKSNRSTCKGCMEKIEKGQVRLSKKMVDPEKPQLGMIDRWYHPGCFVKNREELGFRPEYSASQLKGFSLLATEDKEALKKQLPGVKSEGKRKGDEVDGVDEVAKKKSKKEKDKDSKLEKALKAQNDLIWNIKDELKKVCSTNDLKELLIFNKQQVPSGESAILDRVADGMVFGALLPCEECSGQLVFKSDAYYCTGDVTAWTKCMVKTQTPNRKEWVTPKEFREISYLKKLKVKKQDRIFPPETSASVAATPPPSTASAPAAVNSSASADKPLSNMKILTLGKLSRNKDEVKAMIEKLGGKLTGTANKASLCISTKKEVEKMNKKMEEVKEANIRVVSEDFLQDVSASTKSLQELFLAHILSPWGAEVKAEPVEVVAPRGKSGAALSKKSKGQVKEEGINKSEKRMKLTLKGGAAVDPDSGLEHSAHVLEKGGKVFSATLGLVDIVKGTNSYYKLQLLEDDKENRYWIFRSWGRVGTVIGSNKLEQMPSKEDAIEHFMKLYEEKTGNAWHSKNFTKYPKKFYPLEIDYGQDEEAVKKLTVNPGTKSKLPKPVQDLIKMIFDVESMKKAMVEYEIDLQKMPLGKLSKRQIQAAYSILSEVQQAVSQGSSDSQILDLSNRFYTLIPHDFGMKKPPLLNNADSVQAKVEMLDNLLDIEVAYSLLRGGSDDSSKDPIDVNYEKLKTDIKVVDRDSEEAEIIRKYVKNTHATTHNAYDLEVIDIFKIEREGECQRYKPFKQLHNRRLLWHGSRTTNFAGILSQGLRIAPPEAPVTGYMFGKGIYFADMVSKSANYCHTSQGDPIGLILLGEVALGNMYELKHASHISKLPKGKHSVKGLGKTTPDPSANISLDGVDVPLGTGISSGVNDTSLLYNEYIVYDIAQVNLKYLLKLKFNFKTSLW
# Poly [ADP-ribose] polymerase 2, sequence (Q9UGN5 whole entry, the tested form may be a part): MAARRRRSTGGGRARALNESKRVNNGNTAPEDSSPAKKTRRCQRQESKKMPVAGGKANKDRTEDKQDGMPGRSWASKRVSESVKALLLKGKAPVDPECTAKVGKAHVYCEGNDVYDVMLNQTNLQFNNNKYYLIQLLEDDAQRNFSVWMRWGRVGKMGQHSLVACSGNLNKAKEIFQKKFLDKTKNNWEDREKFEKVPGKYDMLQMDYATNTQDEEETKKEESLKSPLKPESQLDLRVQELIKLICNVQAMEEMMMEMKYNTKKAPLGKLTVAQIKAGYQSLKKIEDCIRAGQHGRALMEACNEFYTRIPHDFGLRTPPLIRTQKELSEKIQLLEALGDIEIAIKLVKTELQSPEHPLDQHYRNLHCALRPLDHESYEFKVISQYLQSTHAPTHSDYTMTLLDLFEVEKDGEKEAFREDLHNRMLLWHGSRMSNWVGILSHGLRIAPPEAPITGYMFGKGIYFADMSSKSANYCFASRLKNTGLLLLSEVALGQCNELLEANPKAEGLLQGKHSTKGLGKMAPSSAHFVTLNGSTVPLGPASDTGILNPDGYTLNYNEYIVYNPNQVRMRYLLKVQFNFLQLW
Compound,IC50 (MDA-MB-436 [1]) [nM],IC50 [2] [nM],IC50 (MDA-MB-436 [3]) [nM],IC50 [4] [nM],inhibition [5] [%],further results
N#Cc1ccc(N2CCN([C@H]3C=C(c4cc5ncccc5c(=O)[nH]4)CC3)CC2)nc1,1.1,1,0.05,16.6,92,–
N#Cc1ccc(N2CCN([C@@H]3C=C(c4cc5c(N)cc(F)cc5c(=O)[nH]4)CC3)CC2)c(F)c1,–,5.6,–,58,–,–
Nc1cc(F)cc2c(=O)[nH]c(CCCN3CCN(c4ccc(F)cc4)CC3)cc12,1.13,0.9,0.05,9.5,68,–
N#Cc1ccc(N2CCN([C@H]3C=C(c4cc5c(N)cccc5c(=O)[nH]4)CC3)CC2)cc1,0.109,0.6,0.005,1.5,92,–
N#Cc1ccc(N2CCN(CCCc3cc4c(N)cccc4c(=O)[nH]3)CC2)cc1,0.02,0.6,0.001,7.2,93,–
O=C(c1cc(Cc2n[nH]c(=O)c3ccccc23)ccc1F)N1CCN(C(=O)C2CC2)CC1 [OLAPARIB],–,–,–,–,–,Activity [6]: 10%; inhibition in vivo at 3 mg/kg (MDA-MB-436 [7]): 39%; inhibition in vivo at 50 mg/kg (MDA-MB-436 [8]): 40%; inhibition in vivo at 3 mg/kg (CAPAN-1): 49%; inhibition in vivo at 3 mg/kg (SK-ES1): 39.5%
N#Cc1ccc(N2CCN([C@@H]3C=C(c4cc5c(N)cc(F)cc5c(=O)[nH]4)CC3)CC2)cc1,–,5,–,200,40,–
N#Cc1ccc(N2CCN([C@H]3C=C(c4cc5ncc(F)cc5c(=O)[nH]4)CC3)CC2)cc1,0.17,0.9,0.007,26.9,91,–
N#Cc1ccc(N2CCN([C@@H]3C=C(c4cc5c(N)cccc5c(=O)[nH]4)CC3)CC2)cc1,–,2.5,–,167,83,–
N#Cc1ccc(N2CCN([C@H]3C=C(c4cc5c(N)cc(F)cc5c(=O)[nH]4)CC3)CC2)c(F)c1,0.06,0.9,0.05,2.6,89,–
CNC(=O)c1ccc(N2CCN(CCCc3cc4c(N)cc(F)cc4c(=O)[nH]3)CC2)cc1,0.35,0.8,0.01,10.8,62,–
Cn1ncnc1[C@H]1c2n[nH]c(=O)c3cc(F)cc(c23)N[C@@H]1c1ccc(F)cc1 [TALAZOPARIB],–,–,–,–,91,Activity [9]: Toxic; Activity [10]: Toxic; Activity [11]: Non-Toxic; Activity [12]: Toxic; Activity [13]: 10%; Activity [14]: Non-Toxic; Activity (MCF7): 98%; Activity [15]: Non-Toxic; Activity [16]: Toxic; inhibition in vivo at 0.15 mg/kg (MDA-MB-436 [17]): 65%; Activity [18]: Toxic; Activity [19]: Toxic; Activity (HEK293 [20]): 95%
N#Cc1ccc(N2CCN([C@H]3C=C(c4cc5c(N)cc(F)cc5c(=O)[nH]4)CC3)CC2)cc1,0.073,1,0.0016,1.3,92,Tmax [21]: 4.8 min; bioavailability [22]: 59%; half-life [23]: 132 min; Vd [24]: 0.4 L/kg; Activity (MCF7): 36%; AUC(0-t) at 24 h [25]: 18 µM·h; Tmax [26]: 15 min; Cmax [27]: 19 µM; inhibition in vivo at 1.5 mg/kg (MDA-MB-436 [28]): 94%; clearance [29]: 2.2 mL/min/kg; Cmax [30]: 11 µM; AUC(0-t) at 24 h [31]: 106 µM·h; Activity (HEK293 [20]): 65%
CNCc1ccc(-c2[nH]c3cc(F)cc4c3c2CCNC4=O)cc1 [RUCAPARIB],–,–,–,–,–,inhibition in vivo at 3 mg/kg (MDA-MB-436 [7]): 95%; inhibition in vivo at 3 mg/kg (CAPAN-1): 46%; inhibition in vivo at 3 mg/kg (SK-ES1): 20.6%
NC(=O)c1ccc(N2CCN(CCCc3cc4c(N)cc(F)cc4c(=O)[nH]3)CC2)cc1,1.48,0.4,0.33,4.6,54,–
N#Cc1ccc(N2CCN(CCCc3cc4c(N)cc(F)cc4c(=O)[nH]3)CC2)cc1,0.015,0.6,0.0006,3.9,86,Tmax [21]: 4.8 min; bioavailability [22]: 8%; half-life [23]: 66 min; Activity (HEK293 [32]): Non-Toxic; Vd [24]: 0.8 L/kg; Activity (MCF7): 23%; AUC(0-t) at 24 h [25]: 2.4 µM·h; Tmax [26]: 15 min; Cmax [27]: 1.5 µM; inhibition in vivo at 1.5 mg/kg (MDA-MB-436 [28]): 29%; clearance [29]: 17 mL/min/kg; Cmax [30]: 3.7 µM; AUC(0-t) at 24 h [31]: 1.9 µM·h

# Reference: ChEMBL document CHEMBL4673259, “Discovery of isoquinolinone and naphthyridinone-based inhibitors of poly(ADP-ribose) polymerase-1 (PARP1) as anticancer agents: Structure activity relationship and preclinical characterization” (Bioorg Med Chem, 2020)
